Experimental data taken from US20250312258A1, “2,3-PYRROLIDINEDIONE CONJUGATES AND METHODS OF USING THEREOF” (North Carolina State University, priority 2022, published 2025).
Converted amounts (≈) assume the structure as drawn.

Tests used:
S. aureus 29213 = test: Broth microdilution MIC, S. aureus 29213; type: cell-based, Staphylococcus aureus; conditions: Staphylococcus aureus, 29213; read-out: MIC (S. aureus 29213)
S. aureus 25923 = test: Broth microdilution MIC, S. aureus 25923; type: cell-based, Staphylococcus aureus; conditions: Staphylococcus aureus, 25923; read-out: MIC (S. aureus 25923)
MRSA 33591 = test: Broth microdilution MIC, MRSA 33591; type: cell-based; conditions: Staphylococcus aureus, read-out: MIC (MRSA 33591)
VRSA = test: MIC against VRSA (Table 2); type: cell-based; conditions: Staphylococcus aureus, read-out: MIC (VRSA)
S. aureus VRS-2 = test: VRSA thigh infection model in neutropenic mice; type: in vivo, mouse; conditions: 50 mg/kg PO BID q12h, 26 h post-infection, p<0.05
Experimental: (§1) FIG. 8 is a plot comparing the efficacy of linezolid, Compound 4 (AV-0273), and Compound 8 (AV-0267) in the S. aureus VRS-2 thigh infection model, CFU/g thigh. Test animals were rendered neutropenic with cyclophosphamide administration, 150 mg/kg on Day −4 then 100 mg/kg on Day −1 prior to infection on Day 0. On Day 0, animals were intramuscularly inoculated with 8.4×10^4 CFU/mouse (0.1 mL/animal) of the S. aureus VRS-2 strain. The vehicle and the test articles, Compound 4 (AV-0273) and Compound 8 (AV-0267), both at 100 mg/kg, were each intraperitoneally (IP) administered twice with a 12 h interval (BID q12h) at 2 and 14 h after infection. The reference standard, linezolid at 50 mg/kg, was orally (PO) administered BID q12 h starting at 2 h post-infection. Animals were sacrificed at 2 or 26 h post-infection, and the thigh tissues were harvested and weighed from each of the test animals. The bacterial counts (CFU/g thigh) of thigh tissue homogenates were measured.
as §1, with “FIG. 9” for “FIG. 8”, “of linezolid” for “of linezolid,”, “CFU/g thigh, change in bacterial counts relative to baseline count at 26h post-infection. Data represent the change in bacterial counts in thigh tissue following test article treatment relative to the initial 2 h CFU/g thigh or CFU/thigh at the time of dosing (baseline counts).” for “CFU/g thigh.”, “(BID q12 h)” for “(BID q12h)”, “(CFU/g thigh and CFU/thigh)” for “(CFU/g thigh)”, “were compared.” for “were measured.”
Example vancomycin-2,3-pyrrolidinediones conjugates were evaluated using an in vivo tissue infection model with vancomycin resistant MRSA:
Animal model: Murine thigh infection
Bacteria: VRSA (VRS-2). Gram Positive, Staphylococcus aureus (VRSA, VRS-2), Mouse Infected Thigh Model. VRS-2 is VanA producing SCC Mec II st5 train.
Vancomycin conjugates dose: 100 mg/Kg intraperitoneally (IP).
Application: This model assesses the antimicrobial efficacy of test articles in a tissue infection model with vancomycin resistant MRSA. Microbial counts are measured. […]

| MIC (S. aureus 29213) | MIC (S. aureus 25923) | MIC (MRSA 33591) | MIC (VRSA) | SMILES | reduction in bacterial counts compared to the vehicle control group (S. aureus VRS-2) |
| --- | --- | --- | --- | --- | --- |
| 1 µg/mL (≈ 2.81 µM) | 2 µg/mL (≈ 5.61 µM) | 2 µg/mL (≈ 5.61 µM) |  | CCC1C(c2ccc(C(F)(F)F)cc2)=C(O)C(=O)N1CCCCNC (stereo not shown) [Compound 2] |  |
| 2 µg/mL (≈ 5.2 µM) | 2 µg/mL (≈ 5.2 µM) | 2 µg/mL (≈ 5.2 µM) |  | CCC1C(c2ccc(C(F)(F)F)cc2)=C(O)C(=O)N1CCCCCCNC (stereo not shown) [Compound 3] |  |
| 1 µg/mL (≈ 2.66 µM) | 2 µg/mL (≈ 5.31 µM) | 1 µg/mL (≈ 2.66 µM) |  | CCC1C(c2ccc(C(F)(F)F)cc2)=C(O)C(=O)N1c1ccc(NC)cc1 (stereo not shown) [Compound 5] |  |
| 1 µg/mL (≈ 2.69 µM) | 1 µg/mL (≈ 2.69 µM) |  |  | CCC1C(c2ccc(C(F)(F)F)cc2)=C(O)C(=O)N1CCOCCNC (stereo not shown) [Compound 6] |  |
| 1 µg/mL (≈ 2.17 µM) | 2 µg/mL (≈ 4.34 µM) | 1 µg/mL (≈ 2.17 µM) | 4 µg/mL (≈ 8.69 µM) | CCC1C(c2ccc(C(F)(F)F)cc2)=C(O)C(=O)N1CCOCCOCCOCCNC (stereo not shown) [Compound 7] |  |
| 1 µg/mL (≈ 2.13 µM) | 0.5 to 1 µg/mL (≈ 1.06 to 2.13 µM) | 1 µg/mL (≈ 2.13 µM) |  | CCC1C(c2ccc(C(F)(F)F)cc2)=C(O)C(=O)N1CCCNCCCCNCCCNC (stereo not shown) [Compound 9b] |  |
| 8 µg/mL (≈ 12 µM) | 16 µg/mL (≈ 23.9 µM) | 8 µg/mL (≈ 12 µM) |  | CCC1C(c2ccc(C(F)(F)F)cc2)=C(O)C(=O)N1CCN(CCNC)CCN1C(=O)C(O)=C(c2ccc(C(F)(F)F)cc2)C1CC (stereo not shown) [Compound 10] |  |
|  |  |  |  | CC(=O)NC[C@H]1CN(c2ccc(N3CCOCC3)c(F)c2)C(=O)O1 [Linezolid, reference compound] | 100% |
